Earlier results, collected in patent publication US11420990B2, “Ruthenium complex containing alkynyl group, method of synthesizing the same and use thereof” (GUANGDONG PHARMACEUTICAL UNIVERSITY, priority 2018, dated 2022).

Test system: cancer cells
Details: background statement

In the case of `[Ru+2].c1ccc(-c2ccccn2)nc1.c1ccc(-c2ccccn2)nc1.c1ccc2nc3c4cccnc4c4ncccc4c3nc2c1` [[Ru(bpy)2(dppz)]^2+], the “cytotoxicity to cancer cells (in words)” value is given as “insignificant cytotoxicity”.
